ChEMBL document CHEMBL1132784, “Dibasic inhibitors of human mast cell tryptase. Part 2: structure-activity relationships and requirements for potent activity” (Bioorg Med Chem Lett, 2000)

Experiments:
Plasminogen = Plasminogen (Homo sapiens, UniProt P00747); assay: Compound was evaluated for its inhibitory potency against plasmin
Prothrombin = Prothrombin (Homo sapiens, UniProt P00734); assay: Compound was evaluated for its inhibitory potency against thrombin
Serine protease 1 = Serine protease 1 (Homo sapiens, UniProt P07477); assay: Compound was evaluated for its inhibitory potency against trypsin
Tryptase = Tryptase (Homo sapiens, UniProt Q9BZJ3+Q15661+Q9NRR2); assay: Evaluated for its inhibitory potency against tryptase; format: protein assay

Sequence of Serine protease 1 (P07477 whole entry): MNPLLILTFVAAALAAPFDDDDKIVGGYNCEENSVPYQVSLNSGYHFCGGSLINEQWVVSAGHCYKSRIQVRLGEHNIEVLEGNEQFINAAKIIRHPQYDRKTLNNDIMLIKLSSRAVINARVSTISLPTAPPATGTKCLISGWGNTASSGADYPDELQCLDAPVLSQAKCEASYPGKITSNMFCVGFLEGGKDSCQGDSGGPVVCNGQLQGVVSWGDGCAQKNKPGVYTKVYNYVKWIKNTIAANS
Sequence of Plasminogen (P00747 97-580 limits assumed): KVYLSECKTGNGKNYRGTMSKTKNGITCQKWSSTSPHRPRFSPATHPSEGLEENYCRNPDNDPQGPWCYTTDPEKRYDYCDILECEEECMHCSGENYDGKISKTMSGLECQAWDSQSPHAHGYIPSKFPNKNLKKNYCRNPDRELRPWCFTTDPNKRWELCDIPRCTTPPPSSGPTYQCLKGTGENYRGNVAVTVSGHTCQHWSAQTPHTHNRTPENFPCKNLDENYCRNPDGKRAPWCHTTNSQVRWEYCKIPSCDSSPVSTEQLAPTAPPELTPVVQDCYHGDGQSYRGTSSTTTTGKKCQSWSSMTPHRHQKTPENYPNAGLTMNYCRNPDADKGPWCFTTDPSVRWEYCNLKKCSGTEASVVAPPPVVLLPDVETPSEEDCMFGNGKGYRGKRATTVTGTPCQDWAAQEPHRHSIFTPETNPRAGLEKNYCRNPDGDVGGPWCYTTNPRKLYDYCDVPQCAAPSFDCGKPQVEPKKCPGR
Sequence of Plasminogen (P00747 581-810 limits assumed): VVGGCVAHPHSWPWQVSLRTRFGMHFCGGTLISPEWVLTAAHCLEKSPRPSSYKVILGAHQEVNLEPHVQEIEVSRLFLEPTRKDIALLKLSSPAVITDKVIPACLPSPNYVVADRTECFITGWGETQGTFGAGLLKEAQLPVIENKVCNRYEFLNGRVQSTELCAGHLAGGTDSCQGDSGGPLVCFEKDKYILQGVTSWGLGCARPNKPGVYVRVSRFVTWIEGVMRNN

SMILES	Ki (Plasminogen) [µM]	Ki (Prothrombin) [µM]	Ki (Serine protease 1) [µM]	Ki (Tryptase) [µM]
N=C(N)Nc1ccc(CNC(=O)N2CCN(C(=O)OCC34CC5CC(C3)CC(COC(=O)N3CCN(C(=O)NCc6ccc(NC(=N)N)cc6)CC3)(C5)C4)CC2)cc1	576	363	17	0.01
CN1CCC(CCNC(=O)N2CCN(C(=O)O[C@H]3CCC[C@@H](OC(=O)N4CCN(C(=O)NCc5ccc(NC(=N)N)cc5)CC4)CCC3)CC2)CC1	> 1000	269	110	3
N=C(N)Nc1ccc(CNC(=O)N2CCN(C(=O)OC[C@H]3C4C=CC(CC4)[C@@H]3COC(=O)N3CCN(C(=O)NCc4ccc(NC(=N)N)cc4)CC3)CC2)cc1	700	138	15	0.008
CC(=N)N1CCC(CNC(=O)N2CCN(C(=O)O[C@H]3CCC[C@@H](OC(=O)N4CCN(C(=O)NCC5CCN(C(C)=N)CC5)CC4)CCC3)CC2)CC1	> 1000	> 1000	> 1000	> 1000
N=C(N)Nc1ccc(CNC(=O)N2CCN(C(=O)OCC34CCC(COC(=O)N5CCN(C(=O)NCc6ccc(NC(=N)N)cc6)CC5)(CC3)CC4)CC2)cc1	3	123	20	0.0004
O=C(CCCCCn1ccnc1)N1CCN(C(=O)O[C@H]2CCC[C@@H](OC(=O)N3CCN(C(=O)CCCCCn4ccnc4)CC3)CCC2)CC1	> 1000	> 1000	> 1000	46
N=C(N)Nc1ccc(CNC(=O)N2CCN(C(=O)CCCCCC(=O)N3CCN(C(=O)NCc4ccc(NC(=N)N)cc4)CC3)CC2)cc1	> 1000	> 1000	52	0.004
N=C(N)c1ccc(CC(=O)N2CCN(C(=O)O[C@H]3CCC[C@@H](OC(=O)N4CCN(C(=O)Cc5ccc(C(=N)N)cc5)CC4)CCC3)CC2)cc1	155	34	11	0.0002
NCc1ccc(CNC(=O)N2CCN(C(=O)O[C@H]3CCC[C@@H](OC(=O)N4CCN(C(=O)NCc5ccc(CN)cc5)CC4)CCC3)CC2)cc1	> 1000	> 1000	219	0.0001
NCCc1ccc(CC(=O)N2CCN(C(=O)O[C@H]3CCC[C@@H](OC(=O)N4CCN(C(=O)Cc5ccc(CCN)cc5)CC4)CCC3)CC2)cc1	> 1000	> 1000	> 1000	0.002

Other lines, results leading:

Ki (Plasminogen) [µM]	Ki (Prothrombin) [µM]	Ki (Serine protease 1) [µM]	Ki (Tryptase) [µM]	SMILES
> 1000	> 1000	132	0.004	N=C(N)Nc1ccc(CNC(=O)N2CCN(C(=O)O[C@H]3CCC[C@@H](OC(=O)N4CCN(C(=O)NCCCCN)CC4)CCC3)CC2)cc1
> 1000	537	> 1000	0.21	N=C(N)Nc1ccc(CCC(=O)N2CCN(C(=O)O[C@H]3CCC[C@@H](OC(=O)N4CCN(C(=O)CCc5ccc(NC(=N)N)cc5)CC4)CCC3)CC2)cc1
> 1000	> 1000	262	0.004	N=C(N)Nc1ccc(CNC(=O)N2CCN(C(=O)O[C@H]3CCC[C@@H](OC(=O)N4CCN(C(=O)CCCC5CCNCC5)CC4)CCC3)CC2)cc1
> 1000	> 1000	111	0.097	N=C(N)Nc1ccc(CNC(=O)N2CCN(C(=O)O[C@H]3CCC[C@@H](OC(=O)N4CCN(C(=O)CCNc5ccncc5)CC4)CCC3)CC2)cc1
> 1000	255	82	0.0005	N=C(N)Nc1ccc(CC(=O)N2CCN(C(=O)O[C@H]3CCC[C@@H](OC(=O)N4CCN(C(=O)Cc5ccc(NC(=N)N)cc5)CC4)CCC3)CC2)cc1
> 1000	> 1000	165	41	N=C(N)Nc1ccc(CNC(=O)N2CCN(C(=O)O[C@H]3CCC[C@@H](OC(=O)N4CCN(C(=O)CCc5cnc(N)nc5)CC4)CCC3)CC2)cc1
